# Source: patent US20080031868A1, “HUMAN LYSOZYME MEDICINE, ITS MANUFACTURING METHOD AND APPLICATION THEREOF” (priority 2005, published 2008)
# What was measured:
# [1] = tested on: Staphylococcus aureus MRSABAA-42; test: Bronchus pneumonia mice infected by Staphylococcus aureus MRSA BAA-42, treated by atomization inspiring; assay type: in vivo; settings: mice lung; atomization inspired 6.0; the 1th day
# Text: A, atomization sucks gene recombinant Human Lysozyme (HLZ) cured bronchus pneumonia mice infected by Staphylococcus aureus MRSABAA-42
# Choose the test lawn, after washing with the physiological saline, correcting by McB tubes for comparative tests bacterium solution concentration 2#MCF, turbidity of 2.7×10^11 CFU/ml, diluted with physiological saline separately into 10^−1, 10^−2, 10^−3 bacterium solution, drip the nose to infect for mice respectively (anaesthetize the mice with the pentobarbital first, 30 mg/kg, ip.), 0.05 ml a mouse. Observed the mice body changing, and killed parts of mice after infecting 48 h, fetch the whole lung to tissue homogenate, 10 times diluted by physiological saline, draw 0.1 m1 to MH agar plate surface, to cultivate last night 35° C., Gram staining, test under microscope, and count plate. At the same time recorded the number of death mice, and collect some mice tracheas, bronchus, lung tissue and do pathology tissue observing.
# It is called medial lethal dose (LD50) that bacterium amount caused mice appearing lung pharmacology change and 50% died. LD50was used as experimental treatment amount.
# Infected mice is divided into 10 groups at random according to the weight, 30 every groups.
# Designed dosage: The concentration of recombinant human lysozyme medicine was 15000 u/ml as in clinical atomization therapy. Its dose was 15000 u per time and administrated one time everyday, I.e 0.5 mg per time everyday. The dose was 1.3×10-3 mg a mice (counted by weight of 20 g). […] To ensure the breathing amount of lysozyme, the breathing time were extended for 0.5 hour. Based on 0.5 mg/ml, the concentration of 0.25 mg/ml, 1.0 mg/ml and 2.0 mg/ml were set respectively as treatment dose.
# The same group mice were put into the ultrasonic atomizer and then treated with human lysozyme atomized in the compression sprayer (PARL.BOY), twice a day, 5 days in succession.
# Every group, from the infected day to calculae, the animal incidence and death were recorded 14 days in succession. Every group collected 2-3 mice and killed them the 14th day after infecting, did bacteriology detection after lung homogenate, killed surplus animal to fetch the trachea, bronchus, fixed in 10% of the formaldehyde solution after weighing, did pathology check.
# The bacterial culture: A part of mice were killed after infecting 24 h, fetched the whole lung weighting, added 2 ml degerming PBS solution 10 times diluted, draw 0.1 mL to MH agar plate surface, to cultivate last night 35° C., counted in the cultivation plateform of 30-300 CF, if the two close level tissue fluid is 30-300 CFU, counted the low density (make 3 plateforms at the same time each tissue fluid, calculate the average). Collected 2 mice to do bacterial culture in every group at random in 5, 7, 14 days after administration.
# Pathology detection: After dissecting the mice, observed the trachea, bronchus, syncretio of lung, chest wall and membrana pleuralis, the volume of lung and size of lung focus, the lung surface was congested, hydroncus, consolidation and atelectasis by the naked eye. Took out the trachea, bronchus and the whole lung tissue to fixed with 10% of the formaldehyde solution, draw materials.
# [2] = tested on: Staphylococcus aureus MRSABAA-42; test: as above; assay type: in vivo; settings: for accumulative survival number: 30 mice; for accumulative survival number / survival rate (%): 14 days; for survival elevation rate (%): versus infected model group; for bacterial number: mice lung
# [3] = 0.75 mg/ml atomization inspired
smiles,measurement,setting,value
"CC[C@H]1OC(=O)[C@H](C)[C@@H](O[C@H]2C[C@@](C)(OC)[C@@H](O)[C@H](C)O2)[C@H](C)[C@@H](O[C@@H]2O[C@H](C)C[C@H](N(C)C)[C@H]2O)[C@](C)(OC)C[C@@H](C)C(=O)[C@H](C)[C@@H](O)[C@]1(C)O [Clarithromycin, reference compound]",bacterial number,[1],241.9 ± 16.62 CFU/mL
same,"average survival day (day, x ± s)",[2]; [3],7.67 ± 4.01 days
same,accumulative survival number,[2]; [3],5
same,survival rate (%),[2]; [3],16.7%
same,Death number(piece),"[2]; 0.75 mg/ml atomization inspired, day 1",0 piece
same,Death number(piece),"[2]; 0.75 mg/ml atomization inspired, day 2",0 piece
same,Death number(piece),"[2]; 0.75 mg/ml atomization inspired, day 3",4 piece
same,Death number(piece),"[2]; 0.75 mg/ml atomization inspired, day 4",4 piece
same,Death number(piece),"[2]; 0.75 mg/ml atomization inspired, day 5",3 piece
same,Death number(piece),"[2]; 0.75 mg/ml atomization inspired, day 6",4 piece
same,Death number(piece),"[2]; 0.75 mg/ml atomization inspired, day 7",4 piece
same,Death number(piece),"[2]; 0.75 mg/ml atomization inspired, day 8",2 piece
same,Death number(piece),"[2]; 0.75 mg/ml atomization inspired, day 9",3 piece
same,Death number(piece),"[2]; 0.75 mg/ml atomization inspired, day 10",1 piece
same,Death number(piece),"[2]; 0.75 mg/ml atomization inspired, day 11",0 piece
same,Death number(piece),"[2]; 0.75 mg/ml atomization inspired, day 12",0 piece
same,Death number(piece),"[2]; 0.75 mg/ml atomization inspired, day 13",0 piece
same,Death number(piece),"[2]; 0.75 mg/ml atomization inspired, day 14",0 piece
same,survival elevation rate (%),[2]; [3],0.00%
same,"average survival day (day, x ± s)",[2]; 1.5 mg/ml atomization inspired,8.70 ± 4.65 days
same,accumulative survival number,[2]; 1.5 mg/ml atomization inspired,12
same,survival rate (%),[2]; 1.5 mg/ml atomization inspired,40.0%
same,Death number(piece),"[2]; 1.5 mg/ml atomization inspired, day 1",0 piece
same,Death number(piece),"[2]; 1.5 mg/ml atomization inspired, day 2",0 piece
same,Death number(piece),"[2]; 1.5 mg/ml atomization inspired, day 3",4 piece
same,Death number(piece),"[2]; 1.5 mg/ml atomization inspired, day 4",4 piece
same,Death number(piece),"[2]; 1.5 mg/ml atomization inspired, day 5",3 piece
same,Death number(piece),"[2]; 1.5 mg/ml atomization inspired, day 6",4 piece
same,Death number(piece),"[2]; 1.5 mg/ml atomization inspired, day 7",0 piece
same,Death number(piece),"[2]; 1.5 mg/ml atomization inspired, day 8",2 piece
same,Death number(piece),"[2]; 1.5 mg/ml atomization inspired, day 9",0 piece
same,Death number(piece),"[2]; 1.5 mg/ml atomization inspired, day 10",1 piece
same,Death number(piece),"[2]; 1.5 mg/ml atomization inspired, day 11",0 piece
same,Death number(piece),"[2]; 1.5 mg/ml atomization inspired, day 12",0 piece
same,Death number(piece),"[2]; 1.5 mg/ml atomization inspired, day 13",0 piece
same,Death number(piece),"[2]; 1.5 mg/ml atomization inspired, day 14",0 piece
same,survival elevation rate (%),[2]; 1.5 mg/ml atomization inspired,23.3%
same,"average survival day (day, x ± s)",[2]; 3 mg/ml atomization inspired,11.20 ± 3.53 days
same,accumulative survival number,[2]; 3 mg/ml atomization inspired,18
same,survival rate (%),[2]; 3 mg/ml atomization inspired,60.0%
same,Death number(piece),"[2]; 3 mg/ml atomization inspired, day 1",0 piece
same,Death number(piece),"[2]; 3 mg/ml atomization inspired, day 2",0 piece
same,Death number(piece),"[2]; 3 mg/ml atomization inspired, day 3",0 piece
same,Death number(piece),"[2]; 3 mg/ml atomization inspired, day 4",0 piece
same,Death number(piece),"[2]; 3 mg/ml atomization inspired, day 5",0 piece
same,Death number(piece),"[2]; 3 mg/ml atomization inspired, day 6",4 piece
same,Death number(piece),"[2]; 3 mg/ml atomization inspired, day 7",4 piece
same,Death number(piece),"[2]; 3 mg/ml atomization inspired, day 8",4 piece
same,Death number(piece),"[2]; 3 mg/ml atomization inspired, day 9",0 piece
same,Death number(piece),"[2]; 3 mg/ml atomization inspired, day 10",0 piece
same,Death number(piece),"[2]; 3 mg/ml atomization inspired, day 11",0 piece
same,Death number(piece),"[2]; 3 mg/ml atomization inspired, day 12",0 piece
same,Death number(piece),"[2]; 3 mg/ml atomization inspired, day 13",0 piece
same,Death number(piece),"[2]; 3 mg/ml atomization inspired, day 14",0 piece
same,survival elevation rate (%),[2]; 3 mg/ml atomization inspired,43.3%
same,"average survival day (day, x ± s)",[2]; 6 mg/ml atomization inspired,11.60 ± 3.48 days
same,accumulative survival number,[2]; 6 mg/ml atomization inspired,20
same,survival rate (%),[2]; 6 mg/ml atomization inspired,66.7%
same,Death number(piece),"[2]; 6 mg/ml atomization inspired, day 1",0 piece
same,Death number(piece),"[2]; 6 mg/ml atomization inspired, day 2",0 piece
same,Death number(piece),"[2]; 6 mg/ml atomization inspired, day 3",0 piece
same,Death number(piece),"[2]; 6 mg/ml atomization inspired, day 4",0 piece
same,Death number(piece),"[2]; 6 mg/ml atomization inspired, day 5",0 piece
same,Death number(piece),"[2]; 6 mg/ml atomization inspired, day 6",4 piece
same,Death number(piece),"[2]; 6 mg/ml atomization inspired, day 7",4 piece
same,Death number(piece),"[2]; 6 mg/ml atomization inspired, day 8",2 piece
same,Death number(piece),"[2]; 6 mg/ml atomization inspired, day 9",0 piece
same,Death number(piece),"[2]; 6 mg/ml atomization inspired, day 10",0 piece
same,Death number(piece),"[2]; 6 mg/ml atomization inspired, day 11",0 piece
same,Death number(piece),"[2]; 6 mg/ml atomization inspired, day 12",0 piece
same,Death number(piece),"[2]; 6 mg/ml atomization inspired, day 13",0 piece
same,Death number(piece),"[2]; 6 mg/ml atomization inspired, day 14",0 piece
same,survival elevation rate (%),[2]; 6 mg/ml atomization inspired,50.0%
same,"The 4th day (bacterial number, head incomplete)",[2]; dose 1.5,3.4 ± 0.25
same,"The 5th day (bacterial number, head incomplete)","[2]; dose 1.5, the 5th day",64.40 ± 15.69
same,"The 4th day (bacterial number, head incomplete)",[2]; dose 3,2.5 ± 0.22
same,"The 5th day (bacterial number, head incomplete)","[2]; dose 3, the 5th day",60.70 ± 13.98
same,"The 4th day (bacterial number, head incomplete)",[2]; dose 6,2.2 ± 0.12
same,"The 5th day (bacterial number, head incomplete)","[2]; dose 6, the 5th day",57.60 ± 15.37
same,bacterial number,"[2]; atomization inspired 1.5, 0 day",350 ± 21.5 CFU/mL
same,bacterial number,"[2]; atomization inspired 1.5, the 1th day",247.10 ± 21.31 CFU/mL
same,bacterial number,"[2]; atomization inspired 1.5, the 3rd day",146.90 ± 13.55 CFU/mL
same,bacterial number,"[2]; atomization inspired 1.5, the 5th day",64.40 ± 15.69 CFU/mL
same,bacterial number,"[2]; atomization inspired 1.5, the 14th day",28.0 ± 2.60 CFU/mL
same,bacterial number,"[2]; atomization inspired 3.0, 0 day",350 ± 21.5 CFU/mL
same,bacterial number,"[2]; atomization inspired 3.0, the 1th day",246.30 ± 19.03 CFU/mL
same,bacterial number,"[2]; atomization inspired 3.0, the 3rd day",141.10 ± 18.54 CFU/mL
same,bacterial number,"[2]; atomization inspired 3.0, the 5th day",60.70 ± 13.98 CFU/mL
same,bacterial number,"[2]; atomization inspired 3.0, the 14th day",24.0 ± 2.00 CFU/mL
same,bacterial number,"[2]; atomization inspired 6.0, 0 day",350 ± 21.5 CFU/mL
same,bacterial number,"[2]; atomization inspired 6.0, the 3rd day",134.60 ± 13.58 CFU/mL
same,bacterial number,"[2]; atomization inspired 6.0, the 5th day",57.60 ± 15.37 CFU/mL
same,bacterial number,"[2]; atomization inspired 6.0, the 14th day",10.0 ± 8.00 CFU/mL
same,95% feasible limits of ED50,"[2]; mice survival over 14 days, Bliss method",1760 to 4020 µg/mL
same,ED50 (median effective dose),"[2]; mice survival over 14 days, Bliss method, atomization inspired",2550 µg/mL
